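All cell lines were grown in 96-well plates and treated with compound for 48 hours. Here, GI50 denotes the concentration required for 50% inhibition of growth. The concentration for full growth arrest is given as TGI.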
Tests used:
Test in all cases: DTP human tumour cell line panel, 48 h
786-0 renal = tested on: 786-0 renal
A498 renal = tested on: A498 renal
A549 NSCLC = tested on: A549 NSCLC
ACHN renal = tested on: ACHN renal
BT-549 breast = tested on: BT-549 breast
CAKI-1 renal = tested on: CAKI-1 renal
CCRF-CEM leukemia = tested on: CCRF-CEM leukemia
COLO 205 colon = tested on: COLO 205 colon
DU-145 prostate = tested on: DU-145 prostate
EKVX NSCLC = tested on: EKVX NSCLC
HCC-2998 colon = tested on: HCC-2998 colon
HCT-116 colon = tested on: HCT-116 colon
HCT-15 colon = tested on: HCT-15 colon
HL-60(TB) leukemia = tested on: HL-60(TB) leukemia
HOP-62 NSCLC = tested on: HOP-62 NSCLC
HOP-92 NSCLC = tested on: HOP-92 NSCLC
HS 578T breast = tested on: HS 578T breast
HT29 colon = tested on: HT29 colon
IGROV1 ovarian = tested on: IGROV1 ovarian
K-562 leukemia = tested on: K-562 leukemia
KM12 colon = tested on: KM12 colon
LOX IMVI melanoma = tested on: LOX IMVI melanoma
M14 melanoma = tested on: M14 melanoma
MALME-3M melanoma = tested on: MALME-3M melanoma
MCF7 breast = tested on: MCF7 breast
MDA-MB-231 breast = tested on: MDA-MB-231 breast
MDA-MB-435 = tested on: MDA-MB-435
MOLT-4 leukemia = tested on: MOLT-4 leukemia
NCI-H226 lung = tested on: NCI-H226 lung
NCI-H23 lung = tested on: NCI-H23 lung
NCI-H460 lung = tested on: NCI-H460 lung
NCI-H522 lung = tested on: NCI-H522 lung
NCI/ADR-RES ovarian = tested on: NCI/ADR-RES ovarian
OVCAR-3 ovarian = tested on: OVCAR-3 ovarian
OVCAR-4 ovarian = tested on: OVCAR-4 ovarian
OVCAR-5 ovarian = tested on: OVCAR-5 ovarian
OVCAR-8 ovarian = tested on: OVCAR-8 ovarian
PC-3 prostate = tested on: PC-3 prostate
RPMI-8226 leukemia = tested on: RPMI-8226 leukemia
RXF 393 renal = tested on: RXF 393 renal
SF-268 CNS = tested on: SF-268 CNS
SF-295 CNS = tested on: SF-295 CNS
SF-539 CNS = tested on: SF-539 CNS
SK-MEL-2 melanoma = tested on: SK-MEL-2 melanoma
SK-MEL-28 melanoma = tested on: SK-MEL-28 melanoma
SK-MEL-5 melanoma = tested on: SK-MEL-5 melanoma
SK-OV-3 ovarian = tested on: SK-OV-3 ovarian
SN12C renal = tested on: SN12C renal
SNB-19 CNS = tested on: SNB-19 CNS
SNB-75 CNS = tested on: SNB-75 CNS
SR leukemia = tested on: SR leukemia
SW-620 colon = tested on: SW-620 colon
T-47D breast = tested on: T-47D breast
TK-10 renal = tested on: TK-10 renal
U251 CNS = tested on: U251 CNS
UACC-257 melanoma = tested on: UACC-257 melanoma
UACC-62 melanoma = tested on: UACC-62 melanoma
UO-31 renal = tested on: UO-31 renal

Structure (SMILES): COc1cc(/C=C/C(=O)C(C(=O)/C=C/c2ccc(OC(=O)CCNc3nnc(C)s3)c(OC)c2)C(=O)CCNc2nnc(C)s2)ccc1OC(=O)CCNc1nnc(C)s1
- GI50 (786-0 renal): 2.58 µM
- TGI (786-0 renal): 9.51 µM
- GI50 (A498 renal): 2.51 µM
- TGI (A498 renal): 6.67 µM
- GI50 (A549 NSCLC): 2.7 µM
- TGI (A549 NSCLC): 7.87 µM
- GI50 (ACHN renal): 2.28 µM
- TGI (ACHN renal): 5.22 µM
- GI50 (BT-549 breast): 2.36 µM
- TGI (BT-549 breast): 5.77 µM
- GI50 (CAKI-1 renal): 2.86 µM
- TGI (CAKI-1 renal): > 34.2 µM
- GI50 (CCRF-CEM leukemia): 1.09 µM
- TGI (CCRF-CEM leukemia): 2.51 µM
- GI50 (COLO 205 colon): 2.57 µM
- TGI (COLO 205 colon): 6.94 µM
- GI50 (DU-145 prostate): 2.27 µM
- TGI (DU-145 prostate): 5.61 µM
- GI50 (EKVX NSCLC): 3.8 µM
- TGI (EKVX NSCLC): 14.8 µM
- GI50 (HCC-2998 colon): 1.77 µM
- TGI (HCC-2998 colon): 3.2 µM
- GI50 (HCT-116 colon): 1.65 µM
- TGI (HCT-116 colon): 3.81 µM
- GI50 (HCT-15 colon): 2.47 µM
- TGI (HCT-15 colon): 5.86 µM
- GI50 (HL-60(TB) leukemia): 1.77 µM
- TGI (HL-60(TB) leukemia): 3.93 µM
- GI50 (HOP-62 NSCLC): 5.02 µM
- TGI (HOP-62 NSCLC): > 31.8 µM
- GI50 (HOP-92 NSCLC): 2.48 µM
- TGI (HOP-92 NSCLC): 8.4 µM
- GI50 (HS 578T breast): 2.77 µM
- TGI (HS 578T breast): 9.7 µM
- GI50 (HT29 colon): 1.63 µM
- TGI (HT29 colon): 3.56 µM
- GI50 (IGROV1 ovarian): 1.98 µM
- TGI (IGROV1 ovarian): 4.47 µM
- GI50 (K-562 leukemia): 2.23 µM
- TGI (K-562 leukemia): 8.01 µM
- GI50 (KM12 colon): 1.63 µM
- TGI (KM12 colon): 3.18 µM
- GI50 (LOX IMVI melanoma): 1.89 µM
- TGI (LOX IMVI melanoma): 3.84 µM
- GI50 (M14 melanoma): 3.11 µM
- TGI (M14 melanoma): 11 µM
- GI50 (MALME-3M melanoma): 2.72 µM
- TGI (MALME-3M melanoma): 6.51 µM
- GI50 (MCF7 breast): 2.16 µM
- TGI (MCF7 breast): 12.6 µM
- GI50 (MDA-MB-231 breast): 2.23 µM
- TGI (MDA-MB-231 breast): 7.4 µM
- GI50 (MDA-MB-435): 2.06 µM
- TGI (MDA-MB-435): 6.98 µM
- GI50 (MOLT-4 leukemia): 1.64 µM
- TGI (MOLT-4 leukemia): 3.89 µM
- GI50 (NCI-H226 lung): 2.64 µM
- TGI (NCI-H226 lung): 8.12 µM
- GI50 (NCI-H23 lung): 3.19 µM
- TGI (NCI-H23 lung): 18.4 µM
- GI50 (NCI-H460 lung): 2.2 µM
- TGI (NCI-H460 lung): 4.7 µM
- GI50 (NCI-H522 lung): 2.49 µM
- TGI (NCI-H522 lung): 7.79 µM
- GI50 (NCI/ADR-RES ovarian): 3.87 µM
- TGI (NCI/ADR-RES ovarian): > 38.8 µM
- GI50 (OVCAR-3 ovarian): 2.4 µM
- TGI (OVCAR-3 ovarian): 6.95 µM
- GI50 (OVCAR-4 ovarian): 4.76 µM
- TGI (OVCAR-4 ovarian): > 61.5 µM
- GI50 (OVCAR-5 ovarian): 2.89 µM
- TGI (OVCAR-5 ovarian): 7.12 µM
- GI50 (OVCAR-8 ovarian): 2.93 µM
- TGI (OVCAR-8 ovarian): 16.7 µM
- GI50 (PC-3 prostate): 2.85 µM
- TGI (PC-3 prostate): 15.4 µM
- GI50 (RPMI-8226 leukemia): 1.85 µM
- TGI (RPMI-8226 leukemia): 4.86 µM
- GI50 (RXF 393 renal): 1.3 µM
- TGI (RXF 393 renal): 3.22 µM
- GI50 (SF-268 CNS): 2.64 µM
- TGI (SF-268 CNS): 11.2 µM
- GI50 (SF-295 CNS): 6.8 µM
- TGI (SF-295 CNS): 20.2 µM
- GI50 (SF-539 CNS): 2.43 µM
- TGI (SF-539 CNS): 6.03 µM
- GI50 (SK-MEL-2 melanoma): 2.85 µM
- TGI (SK-MEL-2 melanoma): 12.5 µM
- GI50 (SK-MEL-28 melanoma): 1.75 µM
- TGI (SK-MEL-28 melanoma): 4.02 µM
- GI50 (SK-MEL-5 melanoma): 1.87 µM
- TGI (SK-MEL-5 melanoma): 4.52 µM
- GI50 (SK-OV-3 ovarian): 4.65 µM
- TGI (SK-OV-3 ovarian): 23.6 µM
- GI50 (SN12C renal): 2.49 µM
- TGI (SN12C renal): 10.2 µM
- GI50 (SNB-19 CNS): 4.79 µM
- TGI (SNB-19 CNS): 18.3 µM
- GI50 (SNB-75 CNS): 6.19 µM
- TGI (SNB-75 CNS): 34.5 µM
- GI50 (SR leukemia): 1.18 µM
- TGI (SR leukemia): 3.31 µM
- GI50 (SW-620 colon): 1.64 µM
- TGI (SW-620 colon): 3.33 µM
- GI50 (T-47D breast): 4.14 µM
- TGI (T-47D breast): > 47.5 µM
- GI50 (TK-10 renal): 4.03 µM
- TGI (TK-10 renal): 13.7 µM
- GI50 (U251 CNS): 2.48 µM
- TGI (U251 CNS): 7.35 µM
- GI50 (UACC-257 melanoma): 2.64 µM
- TGI (UACC-257 melanoma): 8.31 µM
- GI50 (UACC-62 melanoma): 1.73 µM
- TGI (UACC-62 melanoma): 3.57 µM
- GI50 (UO-31 renal): 1.62 µM
- TGI (UO-31 renal): 3.67 µM
